Molecular target: T1, COL3 (Homo sapiens, UniProt P02461)
T1 sequence (P02461 154-1221 limits assumed): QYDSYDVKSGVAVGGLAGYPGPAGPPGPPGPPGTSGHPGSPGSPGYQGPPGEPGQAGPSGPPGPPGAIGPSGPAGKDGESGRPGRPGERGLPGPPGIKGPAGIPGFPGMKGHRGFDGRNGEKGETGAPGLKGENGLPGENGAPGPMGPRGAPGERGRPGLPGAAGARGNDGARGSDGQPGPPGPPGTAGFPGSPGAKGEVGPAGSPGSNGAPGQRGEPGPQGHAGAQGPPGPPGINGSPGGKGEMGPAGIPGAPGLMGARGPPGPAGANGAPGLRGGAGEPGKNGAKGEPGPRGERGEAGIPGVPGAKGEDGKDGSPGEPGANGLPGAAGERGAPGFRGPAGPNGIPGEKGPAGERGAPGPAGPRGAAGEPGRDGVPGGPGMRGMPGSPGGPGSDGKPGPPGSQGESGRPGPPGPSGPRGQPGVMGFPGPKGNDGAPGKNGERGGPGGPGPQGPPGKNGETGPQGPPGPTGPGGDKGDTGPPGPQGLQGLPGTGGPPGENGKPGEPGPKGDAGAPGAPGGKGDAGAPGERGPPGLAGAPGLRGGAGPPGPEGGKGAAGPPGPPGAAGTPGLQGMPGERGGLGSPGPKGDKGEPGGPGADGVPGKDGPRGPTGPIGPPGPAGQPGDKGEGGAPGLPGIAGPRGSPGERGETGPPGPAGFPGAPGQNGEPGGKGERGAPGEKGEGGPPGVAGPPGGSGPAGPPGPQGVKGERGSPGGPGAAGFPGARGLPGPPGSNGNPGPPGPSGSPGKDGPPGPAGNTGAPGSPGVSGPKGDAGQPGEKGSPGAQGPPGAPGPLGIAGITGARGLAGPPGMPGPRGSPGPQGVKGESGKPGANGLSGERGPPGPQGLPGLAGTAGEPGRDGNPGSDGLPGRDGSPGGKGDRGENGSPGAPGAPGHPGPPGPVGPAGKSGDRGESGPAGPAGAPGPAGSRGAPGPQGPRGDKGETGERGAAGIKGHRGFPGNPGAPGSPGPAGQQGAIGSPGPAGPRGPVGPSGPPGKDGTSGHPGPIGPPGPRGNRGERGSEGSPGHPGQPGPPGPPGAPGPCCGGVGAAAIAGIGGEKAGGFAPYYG
Assay: Competition assay: Gd(III) tetrameric probe displaces Eu(III) monomeric probe from COL3
Format: binding
Conditions: 5 µM Eu(III) monomeric probe, Gd tetrameric probe 0.01–200 µM, 1 h room temperature
Method: The binding interactions of the tetrameric Gd(III)-labelled probes with COL3 were studied by a competition assay, as Gd(III) is not suitable for TRF based assays. In competition assays, the binding of the Gd(III)-labelled tetrameric probe of interest to the target protein was measured by competition with the corresponding Eu(III)-labelled monomeric probe. Specifically, a row of wells was coated with collagen (COL3) and added with a constant amount of the Eu(III)-labelled probe of interest (e.g. Eu-DOTAMA-CBP1). Wells were then added and incubated with increasing concentrations of the corresponding tetrameric Gd(III)-labelled probes (e.g. [Gd-DOTAMA]4-CBP1). Displacement curves were then obtained by plotting the residual Eu(III) TRF against the concentration of the Gd(III)-labelled probe. Briefly, eight solutions were made containing a fixed concentration of Eu(III)-monomeric probe (5 µM) and increasing concentrations of the Gd-tetrameric probe (0.01–200 µM). Plates pre-coated with COL3 were simultaneously incubated with both compounds for 1 h at room temperature (triplicate wells per plate and 3 independent plates). After the incubation, the Eu(III) TRF assay protocol including the acid extraction and enhancement solution steps were used to measure the binding of the monomeric probe in the presence of the competing tetrameric probe, as previously described. […]

| Substance | displacement of the monomeric Eu(III)-labelled counterpart from COL3 (in words) |
| --- | --- |
| Ac-C-TEFPLRMRDWLKN [[Gd-DOTAMA]4-CBP2, tetrameric probe: tri-lysine scaffold bearing four Gd-DOTAMA units conjugated at the N-terminus of CBP2] | can be observed only at very high concentrations |
| Ac-C-RDKKVAEQS [[Gd-DOTAMA]4-SccCBP1, scrambled tetrameric Gd probe (Ac-C-…), negative control] | cannot |

— publication PMC11408249, “Non-invasive in vivo imaging of changes in Collagen III turnover in myocardial fibrosis” (npj Imaging, 2024)
